Measured values from patent US20140148446A1, “COMPOUNDS THAT ENABLE ALTERNATIVE MITOCHONDRIAL ELECTRON TRANSFER” (University of North Texas Health Science Center, priority 2010, published 2014).

Columns and labels:
[1] = system: mitochondrial complex I-III; type: biochemical, rat; settings: for Inhibition of complex I-III activity: inhibitor alone
Protocol: (§1) Fresh rat heart was removed and placed in ice-cold mitochondrial isolation buffer containing 210 mM mannitol, 70 mM sucrose, 5 mM HEPES, and 1 mM EDTA, pH 7. The heart was homogenized immediately, and the mitochondrial fraction was isolated by differential centrifugation as described previously (Trounce et al., 1996). Mitochondria were stored at −80° C. until subsequent analysis.
(§2) All mitochondrial activity assays were performed according to previous publications with minimal modifications for complex I (Lenaz et al., 2004), complex I-III, complex II, complex III, and II-III (Trounce et al., 1996). […] Complex I activity was monitored by adding NADH to the mix with or without rotenone/antimycin A. The final data were normalized to blank values at time zero. The reaction was monitored in a kinetic spectrophotometer at 340 nm. Complex I activity was measured in arbitrary units and normalized to control levels for statistical analysis. Isolated mitochondria equivalent to 40-200 μg mitochondrial protein was used for each assay, except for assays with inhibitors, when larger amount of mitochondria (3 to 5 folds) were used to ensure that inhibition was distinguishable. Final data were normalized to control levels. For complex I-III activity, the reaction was initiated with the addition of NADH, cyt c was used as final substrate and its reduction was monitored at 550 nm. For assay of complex II-III activity, succinate was added instead of NADH, and the electron transfer to cyt c was performed according to previous publications (Atamna et al., 2008). To test whether the electrons from the reduced form of MB (MBH2) can be transferred to cyt c in mitochondrial lysate, we added 10 μM 2,7-dichlorofluorescin (DCFH, Invitrogen, Carlsbad, Calif.) to the reaction system. Free radicals convert non-fluorescent DCFH to highly fluorescent DCF (Ex, 488 nm, and Em, 530 nm). In the presence of cyt c, which accepts electrons from MBH2, conversion of DCFH to DCF is decreased.

mitochondrial complex I = experiment: Mitochondrial complex I activity assay (NADH dehydrogenase); type: biochemical, rat
Protocol: as §1, §2

HT-22 cells [2] = experiment: Protection against cell death (cell viability) induced by glutamate in HT-22 cells; type: cell-based; settings: for Potency and efficacy of the protective action on cell viability (FIG. 10): glutamate toxicity, compared with methylene blue
Protocol: HT-22 cells (gift from Dr. David Schubert, Salk Institute, San Diego, Calif.) were plated at 4,000 cells per well in 96 well plates and cultured over night. […] At the end of the 24 hours, the medium was removed and the plates were rinsed with PBS and incubated with 10 μM calcein-AM (Invitrogen, Carlsbad, Calif.) in PBS for 20 minutes. […] Cell culture wells treated with bleach before rinsing were used as blank.

HT-22 cells [3] = experiment: Protection against ROS production induced by glutamate in HT-22 cells; type: cell-based; settings: for Potency and efficacy of the protective action on reactive oxygen species production (FIG. 11): compared with methylene blue
HT-22 cells [4] = experiment: Protection against mitochondrial membrane potential collapse induced by glutamate in HT-22 cells; type: cell-based; settings: for Potency and efficacy of the protective action on mitochondrial membrane potential collapse (FIG. 12): compared with methylene blue
[5] = system: mitochondrial complex II-III; experiment: Mitochondrial complex II-III activity in extracted mitochondria; type: biochemical, rat; settings: inhibitor alone
Protocol: as §1
All mitochondrial activity assays were performed according to previous publications with minimal modifications for complex I (Lenaz et al., 2004), complex I-III, complex II, complex III, and II-III (Trounce et al., 1996). […] Complex I activity was monitored by adding NADH to the mix with or without rotenone/antimycin A. The final data were normalized to blank values at time zero. The reaction was monitored in a kinetic spectrophotometer at 340 nm. Complex I activity was measured in arbitrary units and normalized to control levels for statistical analysis. Isolated mitochondria equivalent to 40-200 μg mitochondrial protein was used for each assay, except for assays with inhibitors, when larger amount of mitochondria (3 to 5 folds) were used to ensure that inhibition was distinguishable. Final data were normalized to control levels. For complex I-III activity, the reaction was initiated with the addition of NADH, cyt c was used as final substrate and its reduction was monitored at 550 nm. […]

[6] = glutamate, HT-22 cells, read-out: Protection against cell death (EC50)
[7] = Mus musculus, glutamate, HT-22 cells, read-out: Protection against cell death (EC50)

Row | EC50 (HT-22 cells [3]; Mus musculus) | EC50 (HT-22 cells [4]; Mus musculus) | Molecule | Potency and efficacy of the protective action on cell viability (FIG. 10) (HT-22 cells [2]; HT-22 cells) | Potency and efficacy of the protective action on reactive oxygen species production (FIG. 11) (HT-22 cells [3]) | Potency and efficacy of the protective action on mitochondrial membrane potential collapse (FIG. 12) (HT-22 cells [4]) | EC50 (HT-22 cells [2]; [7]) | further results
1 |  |  | C=C(C)[C@H]1Cc2c(ccc3c2O[C@@H]2COc4cc(OC)c(OC)cc4[C@@H]2C3=O)O1 [rotenone] |  |  |  |  | Inhibition of complex I-III activity [1]: 90%; Inhibition of complex I activity (mitochondrial complex I; CoQ1 as substrate): above 95%; Inhibition of complex I activity (mitochondrial complex I; MB as substrate, maximum rotenone concentrations): 26.7%
2 |  |  | Cc1cc2nc3ccc(N(C)C)cc3nc2cc1N.Cl [neutral red] | significantly decrease the potency and efficacy | significantly decrease the potency and efficacy | significantly decrease the potency and efficacy |  | EC50 (HT-22 cells [2]; [6]): 5840 nM; EC50 (HT-22 cells [3]): 15800 nM; EC50 (HT-22 cells [4]): 8960 nM
3 | 2150 nM | 3270 nM | CN(C)CCCN1c2ccccc2Sc2ccc(Cl)cc21 [chlorpromazine] | significantly decreases the potency and efficacy | significantly decrease the potency and efficacy | significantly decrease the potency and efficacy | 2190 nM | 
4 | 84600 nM | 29100 nM | CN(C)CCCN1c2ccccc2CCc2ccccc21 [impramine] | significantly decreases the potency and efficacy | significantly decrease the potency and efficacy | significantly decrease the potency and efficacy | 51900 nM | 
5 |  |  | antimycin A |  |  |  |  | Inhibition of complex I-III activity [1]: 70%; Inhibition of complex II-III activity [5]: 80%
6 | 84.1 nM | 45.1 nM | Clc1ccc2c(c1)Nc1ccccc1S2 [2-chlorophenothiazine] |  |  |  | 4.57 nM | 
7 |  |  | Cc1cc2nc3ccc(N(C)C)cc3[s+]c2cc1N [toluidine blue] |  |  |  |  | EC50 (HT-22 cells [2]; [6]): 1.75 nM; EC50 (HT-22 cells [3]): 0.106 nM; EC50 (HT-22 cells [4]): 1.54 nM
8 | 9690 nM | 214 nM | CC(CN1c2ccccc2Sc2ccccc21)N(C)C (stereo not drawn) [promethazine] | significantly decreases the potency and efficacy | significantly decrease the potency and efficacy | significantly decrease the potency and efficacy | 2060 nM | 
9 |  |  | CC(=O)N1c2ccc(N(C)C)cc2Sc2cc(N(C)C)ccc21 [Acetyl-MB, acetyl-methylene blue] |  |  |  |  | Ability to enhance electron transfer between complex I and III ([1]; redox center disabled by N-acetylation): completely lost its ability to enhance electron transfer

Row | Molecule | EC50 (HT-22 cells [3]; Mus musculus) | EC50 (HT-22 cells [4]; Mus musculus) | Potency and efficacy of the protective action on cell viability (FIG. 10) (HT-22 cells [2]; HT-22 cells) | Potency and efficacy of the protective action on reactive oxygen species production (FIG. 11) (HT-22 cells [3]) | Potency and efficacy of the protective action on mitochondrial membrane potential collapse (FIG. 12) (HT-22 cells [4]) | EC50 (HT-22 cells [2]; [7]) | further results
10 | c1ccc2c(c1)Nc1ccccc1S2 [phenothiazine] | 57.2 nM | 21.2 nM |  |  |  |  | EC50 (HT-22 cells [2]; Mus musculus, HT-22, read-out: Protection against cell death (EC50)): 19 nM
11 | C1=Cc2ccccc2Nc2ccccc21 [Iminostilbene] | 484 nM | 61.7 nM |  |  |  | 189 nM | 
